The NIST ThermoML archive (doi:10.1021/je2013704)

Assay: mn = molality of the nth substance listed, in mol/kg
Details: Liquid, Vibrating tube method

[I-].[K+] [potassium iodide] + O
mass density [kg/m3]
Details	283.15 K	298.12 K	323.07 K	348.04 K	372.99 K	397.97 K	422.94 K	447.94 K	472.96 K
1050 kPa, m1 = 0.669	1078.98	1074.75	1064.04	1049.72	1032.6	1012.71	990.31	965.35	–
1050 kPa, m1 = 0.9	–	1100.27	1088.99	1074.24	1056.8	1036.96	1014.85	990.56	–
1050 kPa, m1 = 1.063	1122.95	1117.9	1106.19	1091.2	1073.46	1053.24	1030.64	1005.63	–
10020 kPa, m1 = 0.669	1083.16	1078.81	1067.95	1053.73	1036.79	1017.19	995.34	970.94	944.19
10020 kPa, m1 = 0.9	–	1104.27	1092.94	1078.29	1061.02	1041.47	1019.62	996.18	–
10020 kPa, m1 = 1.063	1127.11	1121.98	1110.17	1095.23	1077.72	1057.79	1035.74	1011.23	984.84
19970 kPa, m1 = 0.669	1087.75	1083.04	1072.19	1057.99	1041.3	1022.06	1000.61	976.95	950.96
19970 kPa, m1 = 0.9	–	1108.67	1097.21	1082.62	1065.55	1046.32	1024.97	1002.22	–
19970 kPa, m1 = 1.063	1131.7	1126.32	1114.52	1099.65	1082.29	1062.77	1041.07	1017.26	991.38
29900 kPa, m1 = 0.669	1092.18	1087.37	1076.42	1062.23	1045.73	1026.71	1005.73	982.65	957.4
29900 kPa, m1 = 0.9	–	1112.93	1101.41	1086.89	1070.01	1050.95	1030.16	1007.94	–
29900 kPa, m1 = 1.063	1136.2	1130.67	1118.76	1103.95	1086.83	1067.47	1046.25	1022.96	997.97
39830 kPa, m1 = 0.669	1096.51	1091.56	1080.45	1066.38	1050.01	1031.29	1010.72	988.1	963.57
39830 kPa, m1 = 0.9	–	1117.15	1105.46	1091.06	1074.32	1055.56	1035.28	1013.36	–
39830 kPa, m1 = 1.063	1140.54	1134.96	1122.89	1108.16	1091.17	1072.16	1051.3	1028.47	1004.2
49760 kPa, m1 = 0.669	1100.74	1095.69	1084.42	1070.32	1054.18	1035.78	1015.55	993.34	969.44
49760 kPa, m1 = 0.9	–	1121.3	1109.41	1095.03	1078.51	1060.02	1040.03	1018.68	–
49760 kPa, m1 = 1.063	1144.78	1139.11	1126.88	1112.21	1095.44	1076.71	1056.19	1033.81	1010.14
59680 kPa, m1 = 0.669	1104.92	1099.67	1088.3	1074.35	1058.24	1040.1	1020.17	998.49	975.11
59680 kPa, m1 = 0.9	–	1125.31	1113.37	1099.04	1082.5	1064.32	1044.78	1023.8	–
59680 kPa, m1 = 1.063	1149.02	1143.14	1130.86	1116.3	1099.61	1081.09	1060.87	1038.97	1015.81
68120 kPa, m1 = 0.669	1108.52	1103	1091.53	1077.66	1061.64	1043.65	1024	1002.64	979.68
68120 kPa, m1 = 0.9	–	1128.62	1116.58	1102.03	1085.89	1067.94	1048.68	1027.98	–
68120 kPa, m1 = 1.063	1152.59	1146.49	1134.11	1119.62	1103.03	1084.7	1064.81	1043.19	1020.4
